Patent US12616656B2, “Adventitial painting modality of local drug delivery to abate intimal hyperplasia” (University of Virginia Patent Foundation, priority 2021, dated 2026)

Columns and labels:
IH in a rat model = conditions: perivascular administration; cited from earlier work
CD68 = test: Immunostaining of the inflammation marker CD68; format: in vivo, Sprague-Dawley rats
Procedure: (§1) Paraffin-embedded specimens were processed into 5-μm thick sections for immunostaining. The slides were deparaffinized and hydrated through series of xylenes and graded alcohol. Antigens were retrieved using citrate buffer for 2 hours at 80° C. in a high-pressure cooker. Endogenous peroxidase was blocked by incubation with 3% H2O2 for 10 min. Following application of a monoclonal antibody against either cleaved Caspase 3 (9661, Cell Signaling Technology, Inc., Danvers, MA) or CD68 (T-3003, BMA Biomedicls, Augst, Switzerland), ImmPRESS HRP Anti-Rabbit IgG (Peroxidase) Polymer Detection Kit (MP-7451, Vector Laboratories Inc., Burlingame, CA) was used as the secondary antibody. The staining intensity was visualized using ImmPACT DAB Peroxidase (HRP) Substrate (SK-4105, Vector Laboratories). Data values from 6 different portions were averaged for each animal, and averages from total animals in a group were used to calculate mean+SEM and statistical analysis.

collagen = test: Masson's trichrome staining, collagen density in the artery; format: in vivo, Sprague-Dawley rats; conditions: Mode-1, 14 days
Procedure: Four to six cross-sections cut from different locations (see detailed description above) from the balloon-injured CCA per each animal were used for Masson's trichrome staining. The color images were transformed into monochrome images at an 8-bit scale using Image J. After adjusting the threshold consistent through the analysis, integrated density of interest was measured. Data values from 6 sections were averaged for each animal, and averages from total animals in a group were used to calculate mean+SEM and statistical analysis.

[1] = tested on: active (cleaved) caspase-3; test: Immunostaining of the apoptosis marker active (cleaved) caspase-3; format: in vivo, Sprague-Dawley rats; conditions: Mode-3 painting, 14 days
Procedure: as §1

Structure (SMILES)	IH (IH in a rat model)	number of CD68-positive cells (CD68; Mode-1 and Mode-2, 14 days)	inflammation marker (CD68 staining) (CD68; Mode-3 painting, 14 days)	fibrosis (adventitial collagen accumulation) (collagen)	apoptosis marker (caspase-3 positive cells) [1]
CC(C)N(C[C@H]1O[C@@H](n2cnc3c(N)ncnc32)[C@H](O)[C@@H]1O)[C@H]1C[C@@H](CCc2nc3cc(C(C)(C)C)ccc3[nH]2)C1 [Pinometostat, pinometostat]	reduced IH	–	–	–	–
CO[C@H]1C[C@@H]2CC[C@@H](C)[C@@](O)(O2)C(=O)C(=O)N2CCCC[C@H]2C(=O)O[C@H]([C@H](C)C[C@@H]2CC[C@@H](O)[C@H](OC)C2)CC(=O)[C@H](C)/C=C(\C)[C@@H](O)[C@@H](OC)C(=O)[C@H](C)C[C@H](C)/C=C/C=C/C=C/1C [Rapamycin]	–	the difference was abolished	reduced CD68 staining in the vessel wall	alleviated this fibrotic severity	lowered the overall number of caspase-3 positive cells
